Experimental data from PubChem BioAssay (NCI).
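Following 48 hours of exposure in 96-well plates, responses at five concentrations were used to interpolate endpoints linearly. GI50: concentration for 50% inhibition of growth. TGI is the concentration that stops growth completely.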

How the values were obtained:
Assay in all cases: NCI tumour cell line growth inhibition, 48 h
DMS 273 small cell lung = tested on: DMS 273 small cell lung
M19-MEL melanoma = tested on: M19-MEL melanoma
RXF-631 renal = tested on: RXF-631 renal
XF 498 CNS = tested on: XF 498 CNS
HOP-18 NSCLC = tested on: HOP-18 NSCLC
DU-145 prostate = tested on: DU-145 prostate
HS 578T breast = tested on: HS 578T breast
MDA-MB-231 breast = tested on: MDA-MB-231 breast
MDA-N = tested on: MDA-N

CC(C)(C)OC(=O)N1C2CCCC23O[C@@H]1c1cc2c(cc1C3=O)OCO2 (stereo partly drawn)
TGI (DMS 273 small cell lung): > 100 µM
TGI (M19-MEL melanoma): > 100 µM
TGI (RXF-631 renal): > 100 µM
TGI (XF 498 CNS): > 100 µM

Cc1ccc2[c](c1)[Sn]([c]1ccccc1)([c]1ccccc1)[c]1cc(C)ccc1N2C
GI50 (DMS 273 small cell lung): 44.5 µM
TGI (DMS 273 small cell lung): > 100 µM
GI50 (HOP-18 NSCLC): > 100 µM
TGI (HOP-18 NSCLC): > 100 µM
GI50 (M19-MEL melanoma): 37.7 µM
TGI (M19-MEL melanoma): > 100 µM
GI50 (XF 498 CNS): 63.6 µM
TGI (XF 498 CNS): > 100 µM

CCOC(=O)C1=C(N)Oc2c(sc3c(C)cccc23)C1c1ccc(F)cc1 (stereo not drawn)
GI50 (DU-145 prostate): 849 nM
TGI (DU-145 prostate): 13.5 µM
GI50 (HS 578T breast): 472 nM
TGI (HS 578T breast): 7.17 µM
GI50 (MDA-MB-231 breast): 2370 nM
TGI (MDA-MB-231 breast): 16 µM

CNC(C)[C@H]1CCC2C3CC=C4C(=O)[C@@H](NC(=O)C=C(C)C)CC[C@]4(C)C3CC[C@@]21C (stereo partly drawn)
GI50 (DU-145 prostate): 4530 nM
TGI (DU-145 prostate): 16.9 µM
GI50 (HS 578T breast): 1870 nM
TGI (HS 578T breast): 6.82 µM
GI50 (MDA-MB-231 breast): 1890 nM
TGI (MDA-MB-231 breast): 4.74 µM

COc1ccc2c(c1)C(C)Cc1c(ncnc1-n1cnc3ccccc31)N2C (stereo not drawn)
GI50 (DU-145 prostate): 439 nM
TGI (DU-145 prostate): 10.3 µM
GI50 (HS 578T breast): 535 nM
TGI (HS 578T breast): 37.2 µM
GI50 (MDA-MB-231 breast): 1040 nM
TGI (MDA-MB-231 breast): 4.35 µM

COC(=O)[C@]12CC[C@@H](C)[C@H](C)[C@@H]1C1=CC[C@@H]3[C@@]4(C)C(C=O)=C[C@@](C)(COC(=O)c5ccco5)[C@@H]4[C@H](O)C[C@@]3(C)[C@]1(C)CC2
GI50 (HS 578T breast): 2720 nM
TGI (HS 578T breast): 8.96 µM
GI50 (MDA-MB-231 breast): 2490 nM
TGI (MDA-MB-231 breast): 5.83 µM

COc1cc(C(=O)O[C@H](C(N)=O)[C@]2(C)CO2)c2cccc(C)c2c1
GI50 (DU-145 prostate): < 17 nM
TGI (DU-145 prostate): 0.0928 µM
GI50 (HS 578T breast): 130 nM
TGI (HS 578T breast): 15.5 µM
GI50 (MDA-MB-231 breast): 16 nM
TGI (MDA-MB-231 breast): 1.29 µM

c1ccc(NCCSc2nc3ccccc3s2)cc1
TGI (DU-145 prostate): > 100 µM
TGI (HS 578T breast): > 100 µM
TGI (MDA-MB-231 breast): > 100 µM
TGI (MDA-N): > 100 µM

O=C(NC1CCCCC1)c1ccc(Nc2ncnc3c2cnn3-c2ccccc2)cc1
GI50 (DU-145 prostate): 10600 nM
TGI (DU-145 prostate): 48.1 µM
GI50 (HS 578T breast): 3370 nM
TGI (HS 578T breast): 34.2 µM
GI50 (MDA-MB-231 breast): 5090 nM
TGI (MDA-MB-231 breast): 21.9 µM

Cn1c(=S)c2[nH]c(SCCCc3ccccc3)nc2n(C)c1=O
TGI (DU-145 prostate): > 100 µM
TGI (HS 578T breast): > 100 µM
TGI (MDA-MB-231 breast): > 100 µM
TGI (MDA-N): > 100 µM

COc1cc2c3c(n(CCCN(CCO)CCO)c(=O)c2cc1OC)-c1cc2c(cc1C3=O)OCO2
GI50 (DU-145 prostate): < 10 nM
TGI (DU-145 prostate): 1.27 µM
GI50 (HS 578T breast): 1660 nM
TGI (HS 578T breast): 13 µM
GI50 (MDA-MB-231 breast): 583 nM
TGI (MDA-MB-231 breast): 2.42 µM

CC1COS(=O)O1 (stereo not drawn)
TGI (DMS 273 small cell lung): > 100 µM
TGI (HOP-18 NSCLC): > 100 µM
TGI (M19-MEL melanoma): > 100 µM
TGI (XF 498 CNS): > 100 µM

COc1cc(/C=C2\CCC/C(=C\c3ccc(OCC4CO4)c(OC)c3)C2=O)ccc1OCC1CO1 (stereo not drawn)
GI50 (DU-145 prostate): 3060 nM
TGI (DU-145 prostate): 15.8 µM
GI50 (HS 578T breast): 4220 nM
TGI (HS 578T breast): > 100 µM

COc1ccc(-c2nn(-c3cccc(Cl)c3)cc2-c2nc(N)[nH]c(=O)c2C#N)cc1
GI50 (DU-145 prostate): 17900 nM
TGI (DU-145 prostate): 70.1 µM
GI50 (HS 578T breast): 3550 nM
TGI (HS 578T breast): 40.3 µM
GI50 (MDA-MB-231 breast): 3390 nM
TGI (MDA-MB-231 breast): 53.3 µM

O=C1C=CC(=CC=C2C=CN(CCCCCCCCCCC(=O)NCCCCCCCCCCCC(=O)O)C=C2)C=C1
TGI (DMS 273 small cell lung): > 100 µM
TGI (M19-MEL melanoma): > 100 µM
TGI (RXF-631 renal): > 100 µM
TGI (XF 498 CNS): > 100 µM

COc1cc(/C=C/C(=O)C(C(=O)/C=C/c2ccc(OC(=O)CCNC34CC5CC(CC(C5)C3)C4)c(OC)c2)C(=O)CCNC23CC4CC(CC(C4)C2)C3)ccc1OC(=O)CCNC12CC3CC(CC(C3)C1)C2 (stereo not drawn)
GI50 (DU-145 prostate): 2210 nM
TGI (DU-145 prostate): 5.02 µM
GI50 (HS 578T breast): 2100 nM
TGI (HS 578T breast): 6.84 µM
GI50 (MDA-MB-231 breast): 3990 nM
TGI (MDA-MB-231 breast): 26.5 µM

Nc1c(C(=O)Nc2ccccc2Cl)sc2nc3c(cc12)C(=O)CCC3
GI50 (DU-145 prostate): 10300 nM
TGI (DU-145 prostate): > 100 µM
GI50 (HS 578T breast): 3560 nM
TGI (HS 578T breast): > 100 µM
GI50 (MDA-MB-231 breast): 6970 nM
TGI (MDA-MB-231 breast): > 100 µM

CN1C(NNC(=O)c2cccnc2)=NS(=O)(=O)c2cc(Cl)ccc21
GI50 (DU-145 prostate): > 100000 nM
TGI (DU-145 prostate): > 100 µM
GI50 (HS 578T breast): > 100000 nM
TGI (HS 578T breast): > 100 µM
GI50 (MDA-MB-231 breast): > 100000 nM
TGI (MDA-MB-231 breast): > 100 µM

CC1(C)N=C(N)N=C(N)N1c1cccc(OCCOc2cccc([N+](=O)[O-])c2)c1
GI50 (DU-145 prostate): 4380 nM
TGI (DU-145 prostate): > 100 µM
GI50 (HS 578T breast): 33500 nM
TGI (HS 578T breast): > 100 µM
GI50 (MDA-MB-231 breast): 10200 nM
TGI (MDA-MB-231 breast): > 100 µM

NC(=S)N/N=C1\CCCC\C1=C/c1ccccc1
TGI (DMS 273 small cell lung): 82.6 µM
TGI (HOP-18 NSCLC): > 100 µM
TGI (M19-MEL melanoma): > 100 µM
TGI (RXF-631 renal): > 100 µM

O=C1C=C(Nc2ccc(S(=O)(=O)Nc3nccs3)cc2)c2ccccc2C1=O
TGI (HS 578T breast): 75.1 µM
TGI (MDA-MB-231 breast): 71.3 µM
TGI (MDA-N): 38.5 µM

C=C1C(=O)OC2C1CC(OC(C)=O)/C(C)=C/CCC1(C)OC21 (stereo not drawn)
TGI (DU-145 prostate): > 100 µM
TGI (HS 578T breast): > 100 µM
TGI (MDA-MB-231 breast): > 100 µM
TGI (MDA-N): > 100 µM

NCCCn1c2c(c3ccccc3c1=O)C(=O)c1ccccc1-2
GI50 (DU-145 prostate): 118 nM
TGI (DU-145 prostate): 3.71 µM
GI50 (HS 578T breast): 556 nM
TGI (HS 578T breast): 6.25 µM
GI50 (MDA-MB-231 breast): 177 nM
TGI (MDA-MB-231 breast): 0.736 µM

Oc1ccc(/C=C/c2cc(O)cc3c2C(c2cc(O)cc(O)c2)C(c2ccc(O)c(O)c2)O3)cc1 (stereo not drawn)
TGI (DU-145 prostate): > 100 µM
TGI (HS 578T breast): 88.8 µM
TGI (MDA-MB-231 breast): 68 µM
TGI (MDA-N): 56.9 µM

CCOC(=O)c1sc(NC(=O)COc2cccc(/C=C3\CCc4cc(OC)ccc4C3=O)c2)nc1C
GI50 (DU-145 prostate): 1860 nM
TGI (DU-145 prostate): 3.81 µM
GI50 (HS 578T breast): 3940 nM
TGI (HS 578T breast): 49.7 µM
GI50 (MDA-MB-231 breast): 10100 nM
TGI (MDA-MB-231 breast): > 100 µM

Cc1ccc(C)c(N2C(=O)C(=O)C(c3nc4ccccc4o3)/C(=N\NC(=O)c3ccccc3O)C2=O)c1 (stereo not drawn)
TGI (DMS 273 small cell lung): 36.1 µM
TGI (HOP-18 NSCLC): > 100 µM
TGI (M19-MEL melanoma): > 100 µM

Cc1ccc(NC(=O)C(=O)C2C(=O)NC(=O)NC2=O)cc1C
TGI (DMS 273 small cell lung): > 100 µM
TGI (HOP-18 NSCLC): > 100 µM
TGI (M19-MEL melanoma): > 100 µM
TGI (XF 498 CNS): > 100 µM

C1=NC(N(Cc2ccccc2)Cc2ccccc2)N(Cc2ccccc2)N1 (stereo not drawn)
TGI (DMS 273 small cell lung): 29.1 µM
TGI (HOP-18 NSCLC): 45.7 µM
TGI (M19-MEL melanoma): 34.2 µM
TGI (RXF-631 renal): 56 µM

CSc1ccc2c(cc1=O)[C@@H](NC(=O)c1cc(O)c(O)c(O)c1)CCc1cc(O)c(O)c(O)c1-2
TGI (DMS 273 small cell lung): 39.9 µM
TGI (M19-MEL melanoma): 29.9 µM
TGI (RXF-631 renal): 30.4 µM
TGI (XF 498 CNS): 39.4 µM

CCCCCCCCCCCCCCCCCCC1=C(O)C(=O)C=C(OC)C1=O
TGI (DMS 273 small cell lung): > 100 µM
TGI (HOP-18 NSCLC): > 100 µM
TGI (M19-MEL melanoma): > 100 µM
TGI (XF 498 CNS): > 100 µM

Cc1ccc2c(c1-c1ccccc1)C(=O)OC2
TGI (DMS 273 small cell lung): > 100 µM
TGI (HOP-18 NSCLC): > 100 µM
TGI (M19-MEL melanoma): > 100 µM
TGI (RXF-631 renal): > 100 µM

O=C1/C(=C/N2N=C(c3ccc4ccccc4c3)CC2c2ccccc2O)SC(=S)N1c1cccnc1 (stereo not drawn)
GI50 (DU-145 prostate): 1500 nM
TGI (DU-145 prostate): > 100 µM
GI50 (HS 578T breast): 2550 nM
TGI (HS 578T breast): > 100 µM
GI50 (MDA-MB-231 breast): 2290 nM
TGI (MDA-MB-231 breast): 8.34 µM
